The values that follow come from publication PMC6792352, “Limited Chemical Structural Diversity Found to Modulate Thyroid Hormone Receptor in the Tox21 Chemical Library” (Environmental Health Perspectives, 2019).

Structures can show the parent of a compound that is named as a salt.

One data set in a line: in vitro. As to conditions: rat, gh3-tre-luc cells, AC50 (uM) modified / 1000.
On to `CCNc1nc(Cl)nc(NC(C)C)n1` [Atrazine], for which the CC50 (as a rule, the concentration at which the toxic effect on the cells reaches its halfway point) at 24 h is above 90 µM.
`NCCO/C=C/[C@H](N)C(=O)O` [Aviglycine hydrochloride] gave a cytotoxic concentration (CC50) at 24 h above 50 µM.
As for `CNC(=O)c1ccccc1Sc1ccc2c(/C=C/c3ccccn3)n[nH]c2c1` [Axitinib], the cytotoxic concentration (CC50) at 24 h is above 50 µM.
As for `O=C(CCCN1CCN2CCCC2C1)c1ccc(F)cc1` (centres unmarked) [Azabuperone], the CC50 at 24 h was above 50 µM.
Take `O=C(CCN1CCN2CCCC2C1)N1c2ccccc2Sc2ccc(Cl)cc21` (centres unmarked) [Azaclorzine]: half-maximal cytotoxicity (CC50 at 24 h) was put at 14.6 µM.
On to `Clc1ccc(C2(Cn3cncn3)OCCO2)c(Cl)c1` [Azaconazole], for which the half-maximal cytotoxic concentration (CC50) at 24 h was above 90 µM.
Same read-out and setting: under `O=C1CCCCCCCCCCCN1` [Azacyclotridecan-2-one] stands above 90 µM.
In turn, `COP(=O)(OC)SCn1c(=O)oc2cc(Cl)cnc21` [Azamethiphos] registered a CC50 at 24 h above 90 µM.
Consider `O=C(CCCN1CCN(c2ccccn2)CC1)c1ccc(F)cc1` [Azaperone], for which the cytotoxic concentration (CC50) at 24 h was above 50 µM.
Take `CCCC1C(=O)N2C(N(C)C)=Nc3ccc(C)cc3N2C1=O` (centres unmarked) [Azapropazone]: the CC50 at 24 h is above 20 µM.
Molecule `[N-]=[N+]=CC(=O)OC[C@H](N)C(=O)O` [Azaserine] showed a half-maximal cytotoxic concentration (CC50) at 24 h above 50 µM.
Turning to `CN1C(=O)COc2c(C(=O)NC3CN4CCC3CC4)cc(Cl)cc21` (centres unmarked) [Azasetron], the CC50 at 24 h is 42.1 µM.
The same measure, in the same setting: under `CN1CCC(=C2c3ccccc3CCc3cccnc32)CC1` [Azatadine] stands 47.7 µM.
In turn, `Cn1cnc([N+](=O)[O-])c1Sc1ncnc2nc[nH]c12` [Azathioprine] displayed a CC50 at 24 h above 50 µM.
In the case of `CN1CCCC(n2nc(Cc3ccc(Cl)cc3)c3ccccc3c2=O)CC1` (centres unmarked) [Azelastine hydrochloride], the cytotoxic concentration (CC50) at 24 h turned out to be 12.6 µM.
In turn, `CC1=C(C(=O)OC(C)C)C(c2cccc([N+](=O)[O-])c2)C(C(=O)OC2CN(C(c3ccccc3)c3ccccc3)C2)=C(N)N1` (centres unmarked) [Azelnidipine] displayed a CC50 at 24 h of 4.41 µM.
On the same count and under the same terms, under `CCN1CCc2nc(N)oc2CC1` [Azepexole hydrochloride] stands above 50 µM; under `CC1(C)S[C@@H]2[C@H](NC(=O)[C@H](NC(=O)N3CCNC3=O)c3ccccc3)C(=O)N2[C@H]1C(=O)O` [Azlocillin sodium], above 20 µM.
On the same count and under the same terms, under `c1ccc(/N=N/c2ccccc2)cc1` [Azobenzene] stands above 90 µM.
With `CC(C)(C#N)N=NC(C)(C)C#N` [Azobisisobutyronitrile], the CC50 at 24 h is above 90 µM.
Turning to `NC(=O)/N=N/C(N)=O` [Azodicarbonamide], the CC50 at 24 h was above 90 µM.
With `NS(=O)(=O)c1cc(-c2nnn[nH]2)c(NCc2cccs2)cc1Cl` [Azosemide], the CC50 at 24 h was above 50 µM.
`[O-][N+](=Nc1ccccc1)c1ccccc1` [Azoxybenzene] yielded a CC50 at 24 h above 90 µM.
Same read-out and setting: under `CO/C=C(/C(=O)OC)c1ccccc1Oc1cc(Oc2ccccc2C#N)ncn1` [Azoxystrobin] stands above 100 µM; under `C[C@H]1[C@H](NC(=O)/C(=N\OC(C)(C)C(=O)O)c2csc(N)n2)C(=O)N1S(=O)(=O)O` [Aztreonam], above 20 µM; under `CCOC(=O)OC(C)OC(=O)[C@@H]1N2C(=O)[C@@H](NC(=O)[C@H](N)c3ccccc3)[C@H]2SC1(C)C` (some centres unmarked) [Bacampicillin hydrochloride], above 20 µM.
On the same count and under the same terms, under `NCC(CC(=O)O)c1ccc(Cl)cc1` (centres unmarked) [Baclofen] stands above 50 µM; under `CNC1CCCN(c2c(F)cc3c(=O)c(C(=O)O)cn(C4CC4)c3c2OC)C1` (centres unmarked) [Balofloxacin], above 50 µM.
In turn, `O=C(O)CCNC(=O)c1ccc(/N=N/c2ccc(O)c(C(=O)O)c2)cc1` [Balsalazide] came in with a CC50 at 24 h above 50 µM.
In the case of `CN(C)C(=O)Oc1cc(OC(=O)N(C)C)cc(C(O)CNC(C)(C)C)c1` (centres unmarked) [Bambuterol hydrochloride], the cytotoxic concentration (CC50) at 24 h was above 20 µM.
The same measure, in the same setting: under `CCCCNCC(O)c1ccc(O)cc1` (centres unmarked) [Bamethan] stands above 50 µM; under `CCN(CCO)CCn1c(Cc2ccccc2)nc2c1c(=O)n(C)c(=O)n2C` [Bamifylline Hydrochloride], above 50 µM.
`O=C1CC(=O)NC(=O)N1` [Barbituric acid] gave a CC50 at 24 h above 90 µM.
The same measure, in the same setting: under `COC(=O)C1=C(C)NC(C)=C(C(=O)O[C@H]2CCN(Cc3ccccc3)C2)[C@H]1c1cccc([N+](=O)[O-])c1` [Barnidipine hydrochloride] stands 16.3 µM; under `CCN=C1C=CC(=C(c2ccc(N(CC)CC)cc2)c2ccc(N(CC)CC)cc2)c2ccccc21` [Basic Blue 7], 0.714 µM; under `Cc1c(-c2ccc(O)cc2)n(Cc2ccc(OCCN3CCCCCC3)cc2)c2ccc(O)cc12` [Bazedoxifene acetate], 8.31 µM.
`CCC(=O)OCC(=O)[C@@]1(OC(=O)CC)[C@@H](C)C[C@H]2[C@@H]3CCC4=CC(=O)C=C[C@]4(C)[C@@]3(Cl)[C@@H](O)C[C@@]21C` [Beclazone]: the CC50 at 24 h was above 50 µM.
Still for that read-out and setting: under `C[C@H]1C[C@H]2[C@@H]3CCC4=CC(=O)C=C[C@]4(C)[C@@]3(Cl)[C@@H](O)C[C@]2(C)[C@@]1(O)C(=O)CO` [Beclomethasone] stands above 50 µM.
Regarding `O=C(c1cc2ccccc2o1)N1CCN(Cc2ccccc2)CC1` [Befuraline], the 50% cytotoxic concentration (CC50) at 24 h was above 50 µM.
With `NC[C@H]1O[C@H](O[C@H]2[C@H](O)[C@@H](O[C@H]3O[C@H](CO)[C@@H](O)[C@H](N)[C@H]3O)[C@H](N)C[C@@H]2N)[C@H](N)[C@@H](O)[C@@H]1O` [Bekanamycin sulfate], the CC50 at 24 h is above 50 µM.
Still for that read-out and setting: under `CCN(CC)CCOC(=O)C(O)(c1ccccc1)c1ccccc1` [Benactyzine] stands above 50 µM; under `COC(=O)C(C)N(C(=O)Cc1ccccc1)c1c(C)cccc1C` (centres unmarked) [Benalaxyl], above 90 µM; under `O=C(O)c1ccc(NC2OC[C@@H](O)[C@H](O)[C@H]2O)cc1` (some centres unmarked) [Benaxibine], above 50 µM.
In turn, `CCOC(=O)[C@H](CCc1ccccc1)N[C@H]1CCc2ccccc2N(CC(=O)O)C1=O` [Benazepril hydrochloride] had a 50% cytotoxic concentration (CC50) at 24 h of 5.95 µM.
Molecule `CCOC(=O)Cn1c(=O)sc2cccc(Cl)c21` [Benazolin-ethyl] returned a CC50 at 24 h above 90 µM.
As to `Cn1c(CCCC(=O)O)nc2cc(N(CCCl)CCCl)ccc21` [Bendamustine], the CC50 at 24 h was above 50 µM.
Still for that read-out and setting: under `O=C(O)COc1nn(Cc2ccccc2)c2ccccc12` [Bendazac sodium] stands above 50 µM; under `NS(=O)(=O)c1cc2c(cc1C(F)(F)F)NC(Cc1ccccc1)NS2(=O)=O` (centres unmarked) [Bendroflumethiazide], above 20 µM.
Still for that read-out and setting: under `CC(Cc1cccc(C(F)(F)F)c1)NCCOC(=O)c1ccccc1` (centres unmarked) [Benfluorex hydrochloride] stands 27.3 µM; under `C/C(=C(\CCOP(=O)(O)O)SC(=O)c1ccccc1)N(C=O)Cc1cnc(C)nc1N` [Benfotiamine], above 20 µM; under `CC(NNC(=O)c1ccccc1)c1ccccc1` (centres unmarked) [Benmoxin], above 50 µM.
`CCCCNC(=O)n1c(NC(=O)OC)nc2ccccc21` [Benomyl]: the half-maximal cytotoxic concentration (CC50) at 24 h was above 90 µM.
`CC(=O)Nc1ccc(OC(=O)c2ccccc2OC(C)=O)cc1` [Benorylate] gave a cytotoxic concentration (CC50) at 24 h above 50 µM.
The molecule `CCCCOc1cc(C(=O)OCCN(CC)CC)ccc1N` [Benoxinate hydrochloride] returned a CC50 at 24 h above 20 µM.
Take `O=C(CCCN1CCC(n2c(O)nc3ccccc32)CC1)c1ccc(F)cc1` [Benperidol]: the half-maximal cytotoxic concentration (CC50) at 24 h was above 20 µM.
`NC(CO)C(=O)NNCc1ccc(O)c(O)c1O` (centres unmarked) [Benserazide hydrochloride] came in with a CC50 at 24 h above 50 µM.
Consider `COC(=O)c1ccccc1CS(=O)(=O)NC(=O)Nc1nc(OC)cc(OC)n1` [Bensulfuron-methyl], for which the half-maximal cytotoxic concentration (CC50) at 24 h is above 90 µM.
On the same count and under the same terms, under `CC(C)N1C(=O)c2ccccc2NS1(=O)=O` [Bentazone] stands above 90 µM.
For the molecule `O=C(O)c1ccc(NC(=O)[C@H](Cc2ccc(O)cc2)NC(=O)c2ccccc2)cc1` [Bentiromide sodium], the cytotoxic concentration (CC50) at 24 h was above 50 µM.
The molecule `c1ccc2cc3c(ccc4ccccc43)cc2c1` [Benz(a)anthracene] displayed a cytotoxic concentration (CC50) at 24 h above 90 µM.
For `CC[N+](C)(CC)CCOC(=O)C(O)(c1ccccc1)c1ccccc1` [Benzactyzine methobromide], the CC50 at 24 h was above 50 µM.
In turn, `O=C(O)CONC(=O)c1ccccc1` [Benzadox] showed a half-maximal cytotoxic concentration (CC50) at 24 h above 90 µM.
In the case of `ClC(Cl)c1ccccc1` [Benzal chloride], the CC50 at 24 h was above 90 µM.
On the same count and under the same terms, under `O=Cc1ccccc1` [Benzaldehyde] stands above 90 µM; under `NC(=O)c1ccccc1` [Benzamide], above 90 µM; under `CCc1oc2ccccc2c1C(=O)c1cc(Br)c(O)c(Br)c1` [Benzbromarone], 39.4 µM.
`c1ccccc1` [Benzene] had a CC50 at 24 h above 90 µM.

Still in this data set, the particulars now being: rat, gh3-tre-luc cells, AC50 (uM) modified / 1000, Tox21_110001=Tox21_110352; viability, 1 nM T3 present, 24 h.
`CCC1(C)CC(=O)NC(=O)C1` [Bemegride] registered a CC50 at 24 h above 20 µM.

The same data set, now with this note: rat, gh3-tre-luc cells, AC50 (uM) modified / 1000, Tox21_110001=Tox21_110399; viability, 1 nM T3 present, 24 h.
For `OC(c1ccccc1)(c1ccccc1)C1CCNCC1` [Azacyclonol], the CC50 at 24 h was above 20 µM.

Still in this data set, the particulars now being: rat, gh3-tre-luc cells, AC50 (uM) modified / 1000, Tox21_110001=Tox21_201562; viability, 1 nM T3 present, 24 h.
Take `CNC(=O)Oc1cccc2c1OC(C)(C)O2` [Bendiocarb]: the CC50 at 24 h is above 90 µM.

Staying with this data set, now noted: rat, gh3-tre-luc cells, AC50 (uM) modified / 1000, Tox21_110001=Tox21_300420; viability, 1 nM T3 present, 24 h.
With `O=C(Nc1ccccc1)c1ccccc1I` [Benodanil], the half-maximal cytotoxic concentration (CC50) at 24 h is above 90 µM.

Still in this data set, the particulars now being: rat, gh3-tre-luc cells, AC50 (uM) modified / 1000, Tox21_110001=Tox21_301004; viability, 1 nM T3 present, 24 h.
With `CSc1nc(N=[N+]=[N-])nc(NC(C)C)n1` [Aziprotryne], the CC50 at 24 h is above 90 µM.

Staying with this data set, now noted: rat, gh3-tre-luc cells, AC50 (uM) modified / 1000, Tox21_110001=Tox21_301421; viability, 1 nM T3 present, 24 h.
`CCOP(=S)(OCC)SCn1nnc2ccccc2c1=O` [Azinphos-ethyl]: the CC50 at 24 h is above 90 µM.

Still in this data set, the particulars now being: rat, gh3-tre-luc cells, AC50 (uM) modified / 1000, Tox21_110001=Tox21_301582; viability, 1 nM T3 present, 24 h.
`CCOC(=O)CCN(SN(C)C(=O)Oc1cccc2c1OC(C)(C)C2)C(C)C` [Benfuracarb] returned a CC50 at 24 h of 64 µM.
